Measured values taken from patent US4091006A, “Esters of 3-hydroxyindone compounds” (priority 1975, dated 1978).

Tests used:
two-spotted mite = test: Small scale field tests, mite control on Tendergreen bean plants; format: in vivo, Tetranychus urticae (Koch)
Procedure: Selected enol ester compositions were evaluated in small scale field tests to determine whether the excellent miticidal properties observed in greenhouse testing would be obtained under actual conditions of field use.
In Test I 500 ppm aqueous dispersions were prepared as described above. In tests II and III various dilutions of the test compounds ranging from 125 ppm to 1000 ppm were prepared and used. In each case the test dispersions were applied to a minimum of two replicate test plots measuring five feet in length and containing healthy young Tendergreen bean plants which had previously been infested with two-spotted mite (Tetranychus urticae (Koch)). Dispersions of the test compounds at each concentration level were applied to individual replicate plots using 1/2 gallon garden sprayers equipped with spray nozzles to apply approximately 250 ml. of test solution to each replicate. The effectiveness of the treatment was determined at intervals following application, by microscopic examination of five leaves selected at random from each replicate plot. The degree of effectiveness for each leaf was rated on a scale of from 1 to 5 with 1 indicating no control in reference to a standard sprayed with a mixture of solution less test compound and 5 indicating complete control. The results obtained from inspection of sample leaves were then averaged to give a numerical indication of the degree of control for each compound tested at the concentration applied.

Corn = test: Phytotoxicity, corn; settings: 2500 ppm, 10 days
Procedure: (§4) Experiments were also conducted to determine the phytotoxicity of representative enol ester compositions with respect to healthy fresh plants. […] The test plants were sprayed in accordance with the procedure described above for the Mite Foliage Spray Test so as to deliver approximately 100 milliliters of test solution to the leaves of each plant tested. The sprayed plants and controls were set aside for approximately 1 hour to allow the solutions to dry and were then placed in the greenhouse. After 10 days the plants were visually inspected to determine the extent of foliage injury. A rating of 1 indicates no perceptible injury; 5 indicates the plant was dead and ratings of 2, 3 and 4 indicate intermediate degrees of injury based upon the number and extent to which leaves were injured.

Cotton = test: Phytotoxicity, cotton; settings: 2500 ppm, 10 days
Procedure: as §4

[1] = tested on: egg of the two-spotted mite; test: Mite Ovicide Test; format: in vivo, Tetranychus urticae (Koch); parameters: key to Mite Ova rating: 1: no mortality; 3: an approximately 50% mortality; 5: 100% mortality; settings: spray on eggs, 4 days
Source text: (§1) The test procedures were as follows:
The plants were allowed to dry thoroughly.
(§2) Compositions were rated on the basis of percent kill with a rating of 1 indicating no mortality; 3 signifying an approximately 50% mortality and 5 indicating 100% mortality at the indicated dosage.

Bean = test: Phytotoxicity, bean; settings: 2500 ppm, 10 days
Procedure: as §4

Tomato = test: Phytotoxicity, tomato; settings: 2500 ppm, 10 days
Procedure: as §4

[2] = tested on: egg forms of the two-spotted mite; test: Fumigant toxicity, Method 2 (treated plants near untreated infested plants); format: in vivo; settings: 500 ppm dip, 4 days
Procedure: (§3) Two methods were used to evaluate fumigant properties:
Method 2: Excised bean plants infested with egg forms of the two-spotted mite were dipped in an aqueous preparation (500 ppm) of the test compound. The treated plants were transferred to 250 ml. Erlenmeyer flasks containing 100 ml. of tap water. Four flasks holding treated plants were evenly spaced around a similar flask in which were placed untreated mite-infested plants so that the leaves of the treated foliage were in close proximity (1-3 inches) to the untreated plants. Four days later mortality determinations were made.

[3] = tested on: adults and nymphal stages of the two-spotted mite; test: Mite Foliage Spray Test; format: in vivo, Tetranychus urticae (Koch); parameters: key: 1: no mortality; 3: an approximately 50% mortality; 5: 100% mortality; settings: 4 days
Source text: as §1, §2

[4] = tested on: Perennial rye grass, crabgrass, red root pigweed, mustard; test: Preliminary Herbicide Seed Germination Test; settings: each rated 1 (no injury) to 5 (no seedlings emerged)
[5] = tested on: eggs of the two-spotted mite; test: Fumigant toxicity, Method 1 (deposit in pie plate); format: in vivo; settings: deposit approx. 160 μg per square cm, 4 days
Procedure: as §3
Method 1: Fifty mg. of each compound were dissolved in 5 ml. of acetone and poured into a 20 cm. (bottom diameter) Pyrex No. 210 pie plate. The acetone was allowed to evaporate leaving a deposit of approximately 160 μg. per square cm. The plate was then placed in the bottom of a 50 pound metal lard container (about 30 cm. in diameter and 34 cm. high). Two excised bean plants, held in a 250 ml. Erlenmeyer flask containing 100 ml. of tap water and infested with eggs of the two-spotted mite, were placed in the center of the pie plate. The container was held in the insectary (temperature 80±5° F., 50±5% R. H.) for four days before mortality determinations were made.

[6] = Test I, 500 ppm, 4 days, scale 1 (no control) to 5 (complete control)
[7] = Test I, 500 ppm, 8 days, scale 1 to 5
[8] = Test II, 250 ppm, 3 days, scale 1 to 5
[9] = Test II, 250 ppm, 7 days, scale 1 to 5
[10] = Test II, 500 ppm, 3 days, scale 1 to 5
[11] = Test II, 500 ppm, 7 days, scale 1 to 5
[12] = rating/maximum 15: 100 ppm only, crabgrass omitted
[13] = rating/maximum 20: 100 ppm only, four species
[14] = rating/maximum 40: 100 and 1000 ppm, four species, 10-12 days
[15] = Test II, 1000 ppm, 3 days, scale 1 to 5
[16] = Test II, 1000 ppm, 7 days, scale 1 to 5

Molecule	Average mite control rating, 1st Reading (two-spotted mite; [6])	Average mite control rating, 2nd Reading (two-spotted mite; [7])	Phytotoxicity Rating, Corn (Corn)	Phytotoxicity Rating, Cotton (Cotton)	Mite Ova rating [1]	Phytotoxicity Rating, Bean (Bean)	Phytotoxicity Rating, Tomato (Tomato)	Fumigant Toxicity Method 2 [2]	Mite Adult rating [3]	Fumigant Toxicity Method 1 [5]	Herbicide (total preemergence rating) [4, 13]	Herbicide (total preemergence rating) [4, 14]	also measured
Cc1cc(C)c(C2C(=O)c3ccccc3C2=O)c(C)c1 [Compound A, 2-(2',4',6'-trimethylphenyl)-1,3-indandione, reference compound]	1.0	1.0	–	–	–	–	–	–	–	–	–	–	Average mite control rating, 1st Reading (two-spotted mite; [8]): 1.0; Average mite control rating, 2nd Reading (two-spotted mite; [9]): 1.3; Average mite control rating, 1st Reading (two-spotted mite; [10]): 2.7; Average mite control rating, 2nd Reading (two-spotted mite; [11]): 1.7; Average mite control rating, 1st Reading (two-spotted mite; Test III, 250 ppm, 3 days, scale 1 to 5): 1.0; Average mite control rating, 2nd Reading (two-spotted mite; Test III, 250 ppm, 7 days, scale 1 to 5): 2.0; Average mite control rating, 1st Reading (two-spotted mite; Test III, 500 ppm, 3 days, scale 1 to 5): 1.3; Average mite control rating, 2nd Reading (two-spotted mite; Test III, 500 ppm, 7 days, scale 1 to 5): 1.7; Average mite control rating, 1st Reading (two-spotted mite; Test III, 1000 ppm, 3 days, scale 1 to 5): 3.3; Average mite control rating, 2nd Reading (two-spotted mite; Test III, 1000 ppm, 7 days, scale 1 to 5): 3.3; Average mite control rating, 3rd Reading (two-spotted mite; Test III, 1000 ppm, 21 days, scale 1 to 5): 2.3
Cc1cc(C)c(C2=C(OC(=O)CC3C=CCC3)c3ccccc3C2=O)c(C)c1 (stereo not shown) [2-(2',4',6'-Trimethylphenyl)-3-(cyclopent-2-en-1-ylacetoxy)indone]	–	–	1	2	5 (100% mortality)	1	1	1	5 (100% mortality)	1	–	–	Herbicide (total preemergence rating) [4, 12]: 11/15
2-(2',4',6'-Trimethylphenyl)-3-(neodecanoyloxy)indone	–	–	2	1	5 (100% mortality)	2	1	1	5 (100% mortality)	1	10/20	–	–
COCC(=O)OC1=C(c2c(C)cc(C)cc2C)C(=O)c2ccccc21 [2-(2',4',6'-Trimethylphenyl)-3-(methoxyacetoxy)indone]	–	–	1	1	5 (100% mortality)	1	1	1	5 (100% mortality)	1	–	–	Herbicide (total preemergence rating) [4, 12]: 15/15
CCCCCCCCCCCCOC(=O)OC1=C(c2c(C)cc(C)cc2C)C(=O)c2ccccc21 [2-(2',4',6'-Trimethylphenyl)-3-(dodecyloxycarbonyloxy)indone]	–	–	2	1	5 (100% mortality)	1	1	1	5 (100% mortality)	1	17/20	–	–
Cc1cc(C)c(C2=C(OC(=O)c3cccc(Cl)c3)c3ccccc3C2=O)c(C)c1 [3-(3-Chlorobenzoyloxy)-2-(2',4',6'-trimethylphenyl)indone]	1.5	2.0	–	–	5 (100% mortality)	–	–	–	5 (100% mortality)	–	–	29/40	–
Cc1cc(C)c(C2=C(OC(=O)c3ccccc3Cl)c3ccccc3C2=O)c(C)c1 [3-(2-Chlorobenzoyloxy)-2-(2',4',6'-trimethylphenyl)indone]	2.5	–	–	–	5 (100% mortality)	–	–	–	5 (100% mortality)	–	–	32/40	–
O=C1c2ccccc2C(=O)C1c1c(Cl)cccc1Cl [Compound B, 2-(2',6'-dichlorophenyl)-1,3-indandione, reference compound]	1.5	2.0	–	–	–	–	–	–	–	–	–	–	Average mite control rating, 1st Reading (two-spotted mite; [8]): 3.7; Average mite control rating, 2nd Reading (two-spotted mite; [9]): 2.3; Average mite control rating, 1st Reading (two-spotted mite; [10]): 3.0; Average mite control rating, 2nd Reading (two-spotted mite; [11]): 3.3; Average mite control rating, 1st Reading (two-spotted mite; [15]): 2.0; Average mite control rating, 2nd Reading (two-spotted mite; [16]): 3.3
Cc1cc(C)c(C2=C(OC(=O)OC(C)C)c3ccccc3C2=O)c(C)c1 [2-(2',4',6'-Trimethylphenyl)-3-(Isopropoxycarbonyloxy)indone]	–	–	–	–	5 (100% mortality)	–	–	3	5 (100% mortality)	5 (80-100% control)	18/20	–	–
2-(2'-Methylphenyl)-3-(neodecanoyloxy)indone	–	–	1	1	1	1	1	–	1	–	4/20	–	–
2-(2',5'-Dimethylphenyl)-3-(neodecanoyloxy)indone	–	–	1	1	3 (an approximately 50% mortality)	1	1	–	1	–	4/20	–	–
O=C(OC1=C(c2c(Cl)cccc2Cl)C(=O)c2ccccc21)c1ccccc1Cl [3-(2-chlorobenzoyloxy)-2-(2',6'-dichlorophenyl)indone]	3.0	2.5	–	–	5 (100% mortality)	–	–	–	5 (100% mortality)	–	–	30/40	–
O=C(OC1=C(c2c(Cl)cccc2Cl)C(=O)c2ccccc21)c1cccc(Cl)c1 [3-(3-Chlorobenzoyloxy)-2-(2',6'-dichlorophenyl)indone]	3.0	3.0	–	–	5 (100% mortality)	–	–	–	5 (100% mortality)	–	–	32/40	–
CC(=O)OC1=C(c2c(C)cc(C)cc2C)C(=O)c2ccccc21 [2-(2',4',6'-Trimethylphenyl)-3-(acetoxy)indone]	–	–	–	–	5 (100% mortality)	–	–	5 (80-100% control)	5 (100% mortality)	5 (80-100% control)	–	39/40	–
CC(C)(C)C(=O)OC1=C(c2c(Cl)cccc2Cl)C(=O)c2ccccc21 [2-(2',6'-Dichlorophenyl)-3-(pivaloyloxy)indone]	3.5	4.0	–	–	5 (100% mortality)	–	–	3	5 (100% mortality)	–	–	30/40	Average mite control rating, 1st Reading (two-spotted mite; [8]): 2.3; Average mite control rating, 2nd Reading (two-spotted mite; [9]): 3.7; Average mite control rating, 1st Reading (two-spotted mite; [10]): 3.0; Average mite control rating, 2nd Reading (two-spotted mite; [11]): 3.3; Average mite control rating, 1st Reading (two-spotted mite; [15]): 3.3; Average mite control rating, 2nd Reading (two-spotted mite; [16]): 4.7
2-(2',6'-Dichlorophenyl)-4(7)-methyl-3-(pivaloxyloxy)indone	–	–	–	–	3 (an approximately 50% mortality)	–	–	–	1	–	–	20/40	–
